Results taken from patent publication US20040053962A1, “Methods for inhibiting proliferation and inducing apoptosis in cancer cells” (priority 2003, published 2004).

Columns and labels:
[1] = test system: pancreatic, colonic, and breast cancer cell lines; test: Proliferation by thymidine incorporation and cell number, all lines studied; format: cell-based
Method: (§1) DNA synthesis by [^3H]-Thymidine incorporation. Cells were plated in 12 or 24-well plates. After reaching 70% confluence, they were incubated in serum-free media for 24 hours, which was then replaced with fresh serum-free media with or without the appropriate concentration of leukotriene B4 receptor antagonist LY293111 (62.5-1000 nM), LTB4 (100-400 nM), or both. After the appropriate period of culture, cellular DNA synthesis was assayed by adding 0.5 μCi/well of [^3H]-methyl-thymidine and incubating for another 2 hours. Then, the cells were washed twice with PBS, fixed with 10% trichloroacetic acid (“TCA”) for 30 minutes, and solubilized by adding 0.4 M NaOH to each well. Radioactivity, indicating incorporation of ^3H-thymidine into DNA, was measured by adding a scintillation cocktail and counting on a scintillation counter (LKB RackBeta, Wallac, Turku, Finland)
Cell proliferation assay. Pancreatic cancer cells were seeded into 24-well microplates and incubated at 37° C. After 24 hours, cells were cultured in serum-free media with or without 250 nM LY293111 for 24, 48, and 72 hours. At the end of each time period, the cells were trypsinized to produce a single cell suspension, and the cell number in each well was determined using a Zi-Coulter Counter (Luton, Bedfordsire, United Kingdom). […]

[2] = test system: Capan-2 pancreatic cancer cell line; test: [3H]-thymidine incorporation (DNA synthesis), Capan-2; format: cell-based; conditions: mean±SEM; for proliferation (thymidine incorporation), % control: 24 hours
Method: (§2) Cell culture. The following pancreatic cancer cell lines were used: MiaPaCa-2 and PANC-1 (poorly-differentiated); Capan-1 and Capan-2 (well-differentiated); and HPAF and AsPC-1 (pleomorphic). These were purchased from American Type Culture Collection (Rockville, Md.). PANC-1 and MiaPaCa-2 were grown in DMEM media; HPAF and AsPC-1 were grown in MEM media; and Capan-1 and Capan-2 were grown in-McCoy's media. Media were supplemented with 10% FBS, and the cells were grown as monolayers in a humidified atmosphere of […] and 5% CO2 at 37° C. The cells were regularly seeded into 75 cm^2 flask with media changed every other day. For experiments, cells were grown to 80% confluence, digested with trypsin-EDTA, and plated either in 12 or 24-well plates at a concentration of 50,000/ml, as appropriate.
as §1

[3] = test system: AsPC-1 pancreatic cancer cell line; test: [3H]-thymidine incorporation (DNA synthesis), AsPC-1; format: cell-based, human; conditions: mean±SEM; for proliferation (thymidine incorporation), % control: 24 hours
Method: as §2, §1

[4] = test system: HPAF pancreatic cancer cell line; test: [3H]-thymidine incorporation (DNA synthesis), HPAF; format: cell-based; conditions: for proliferation (thymidine incorporation), % control / proliferation, % control (time course): mean±SEM
Method: as §2, §1

[5] = test system: AsPc-1 human pancreatic tumor cell line xenograft; test: AsPc-1 xenograft tumor growth in athymic mice; format: in vivo; conditions: 0.01% LY293111 in the drinking water, started four days after s.c. injection of 3 million AsPc-1 cells
Method: Athymic mice received a subcutaneous injection of 3 million cancer cells in 50 μl of serum-free media. The highly malignant and aggressive pancreatic tumor cell line, AsPc-1, was used in this experiment. The tumors were allowed to establish and grow for four days prior to treatment with 0.01% LY293111 in the drinking water.

[6] = test system: Bcl-2 in MCF-7 breast cancer cells; test: Bcl-2 expression by western blotting; format: cell-based; conditions: MCF-7, LY293111 500 nM
[7] = test system: MiaPaCa-2 cells; test: DNA fragmentation assay (agarose gel), MiaPaCa-2; format: cell-based; conditions: MiaPaCa-2, 250, 500 and 1000 nM for 48 hours; no ladder in control cells
Method: DNA fragmentation assay. For analysis of DNA fragmentation by agarose gel electrophoresis, treated pancreatic cancer cells were detached from 75 cm^2 flask with trypsin-EDTA, washed twice with PBS, resuspended in 1 ml lysis buffer (25 mM EDTA, 10 mM Tris, 0.5% Triton X-100, and 1% SDS), and freeze-thawed at −80° C. overnight. Then, an equal volume of PEG/NaCl stock solution was added to the lysates to give a final concentration of 0.25% PEG and 1 M NaCl, and the tubes were centrifuged at 13,200 g at 4° C. for 30 minutes. The supernatants containing fragmented small molecular weight DNA were then incubated with RNAse A (0.3 mg/ml) at 37° C. for one hour and then with […] proteinase K (10 mg/ml) for three hours. Samples were then extracted with phenol-chloroform and precipitated with 70% ethanol overnight. The pellets containing DNA were then resuspended in […] of TE buffer, subjected to electrophoresis on a 1.8% agarose gel containing ethidium bromide ([…]), visualized by UV illumination, and analyzed using a Molecular Analyst Gel Documentation system (Bio-rad Laboratories, Hercules, Calif.).

[8] = test system: Capan-1 pancreatic cancer cell line; test: [3H]-thymidine incorporation (DNA synthesis), Capan-1; format: cell-based; conditions: mean±SEM; for proliferation (thymidine incorporation), % control: 24 hours
Method: as §2, §1

[9] = test system: PANC-1 pancreatic cancer cell line; test: [3H]-thymidine incorporation (DNA synthesis), PANC-1; format: cell-based; conditions: mean±SEM; for proliferation (thymidine incorporation), % control: 24 hours
Method: as §2, §1

Structure (SMILES): CCCc1c(OCCCOc2cc(O)c(-c3ccc(F)cc3)cc2CC)cccc1Oc1ccccc1C(=O)O [LY293111, 2-(2-propyl-3-(3-(2-ethyl-4-(4-fluorophenyl)-5-hydroxyphenoxy)propoxy)-phenoxy)benzoic acid]
- effect on proliferation (thymidine incorporation and cell number) [1]: profound concentration-dependent and time-dependent inhibition of proliferation
- proliferation (thymidine incorporation), % control ([2]; Capan-2, LY293111 62.5 nM): 95.4 ± 8.7 % control
- proliferation (thymidine incorporation), % control ([2]; Capan-2, LY293111 125 nM): 67.3 ± 6.8 % control
- proliferation (thymidine incorporation), % control ([2]; Capan-2, LY293111 250 nM): 51.2 ± 5.8 % control
- proliferation, % control (time course) ([2]; Capan-2, LY293111 500 nM, 6 h): 57.8 ± 4.3 % control
- proliferation, % control (time course) ([2]; Capan-2, LY293111 500 nM, 12 h): 32.1 ± 5.6 % control
- proliferation, % control (time course) ([2]; Capan-2, LY293111 500 nM, 24 h): 10.9 ± 6.0 % control
- proliferation (thymidine incorporation), % control ([2]; Capan-2, LY293111 500 nM): 15.8 ± 9.6 % control
- proliferation (thymidine incorporation), % control ([2]; Capan-2, LY293111 1000 nM): 8.9 ± 2.1 % control
- proliferation (thymidine incorporation), % control ([3]; AsPC-1, LY293111 62.5 nM): 90.6 ± 4.6 % control
- proliferation (thymidine incorporation), % control ([3]; AsPC-1, LY293111 125 nM): 72.8 ± 5.4 % control
- proliferation (thymidine incorporation), % control ([3]; AsPC-1, LY293111 250 nM): 44.5 ± 7.7 % control
- proliferation, % control (time course) ([3]; AsPC-1, LY293111 500 nM, 6 h): 65.8 ± 7.7 % control
- proliferation, % control (time course) ([3]; AsPC-1, LY293111 500 nM, 12 h): 44.7 ± 4.1 % control
- proliferation, % control (time course) ([3]; AsPC-1, LY293111 500 nM, 24 h): 16.7 ± 2.1 % control
- proliferation (thymidine incorporation), % control ([3]; AsPC-1, LY293111 500 nM): 18.4 ± 6.9 % control
- proliferation (thymidine incorporation), % control ([3]; AsPC-1, LY293111 1000 nM): 7.3 ± 1.2 % control
- decrease of proliferation ([4]; HPAF (FIG. 6B), LY293111 250 nM, 24 hours): 50%
- proliferation with combination of LTB4 and LY293111 ([4]; HPAF, 250 nM LY293111 + 100 nM LTB4, 24 hours): restored to almost the control level
- proliferation (thymidine incorporation), % control ([4]; HPAF, LY293111 62.5 nM, 24 hours): 103.6 ± 21.8 % control
- proliferation (thymidine incorporation), % control ([4]; HPAF, LY293111 125 nM, 24 hours): 97.6 ± 24.5 % control
- proliferation (thymidine incorporation), % control ([4]; HPAF, LY293111 250 nM, 24 hours): 49.3 ± 9.0 % control
- proliferation, % control (time course) ([4]; HPAF, LY293111 500 nM, 6 h): 67.5 ± 11.6 % control
- proliferation, % control (time course) ([4]; HPAF, LY293111 500 nM, 12 h): 35.7 ± 8.9 % control
- proliferation, % control (time course) ([4]; HPAF, LY293111 500 nM, 24 h): 12.4 ± 3.3 % control
- proliferation (thymidine incorporation), % control ([4]; HPAF, LY293111 500 nM, 24 hours): 10.3 ± 3.0 % control
- proliferation (thymidine incorporation), % control ([4]; HPAF, LY293111 1000 nM, 24 hours): 2.3 ± 1.4 % control
- tumor size vs control group [5]: smaller tumors
- Bcl-2 expression (western blot) [6]: inhibited expression
- DNA fragmentation (apoptosis) [7]: distinctive DNA ladder
- proliferation (thymidine incorporation), % control ([8]; Capan-1, LY293111 62.5 nM): 99.1 ± 4.8 % control
- proliferation (thymidine incorporation), % control ([8]; Capan-1, LY293111 125 nM): 56.9 ± 4.9 % control
- proliferation (thymidine incorporation), % control ([8]; Capan-1, LY293111 250 nM): 16.4 ± 2.0 % control
- proliferation, % control (time course) ([8]; Capan-1, LY293111 500 nM, 6 h): 70.5 ± 8.7 % control
- proliferation, % control (time course) ([8]; Capan-1, LY293111 500 nM, 12 h): 44.5 ± 10.2 % control
- proliferation, % control (time course) ([8]; Capan-1, LY293111 500 nM, 24 h): 15.7 ± 3.4 % control
- proliferation (thymidine incorporation), % control ([8]; Capan-1, LY293111 500 nM): 15.7 ± 3.4 % control
- proliferation (thymidine incorporation), % control ([8]; Capan-1, LY293111 1000 nM): 0.2 ± 0.3 % control
- proliferation (thymidine incorporation), % control ([9]; PANC-1, LY293111 62.5 nM): 89.4 ± 4.4 % control
- proliferation (thymidine incorporation), % control ([9]; PANC-1, LY293111 125 nM): 65.2 ± 3.8 % control
- proliferation, % control (time course) ([9]; PANC-1, LY293111 500 nM, 6 h): 60.2 ± 6.5 % control
- proliferation, % control (time course) ([9]; PANC-1, LY293111 500 nM, 12 h): 48.9 ± 5.3 % control
- proliferation, % control (time course) ([9]; PANC-1, LY293111 500 nM, 24 h): 13.6 ± 1.0 % control
- proliferation (thymidine incorporation), % control ([9]; PANC-1, LY293111 500 nM): 12.4 ± 3.1 % control
- proliferation (thymidine incorporation), % control ([9]; PANC-1, LY293111 1000 nM): 5.6 ± 1.0 % control
